Measured values from US7291451B2, “Modulation of pericyte proliferation” (XOMA Technology Ltd., priority 2000, dated 2007).
“Also recorded” adds a separate entry of the source.

Columns and labels:
Type in all cases: cell-based
[1] = tested on: bovine retinal pericytes (BRPC); test: Cell growth assay (DNA content, cell number) in bovine retinal pericytes; conditions: for stimulation of proliferation: 5, 10 or 15% FBS
Experimental: (§1) A cell growth assay was performed as follows: Cells were plated onto 12-well culture plates and incubated overnight. The cells were treated with vehicle, vascular endothelial growth factor (VEGF, R & D Systems, Minneapolis, Minn.) at 25 ng/ml, serum, compounds, or combinations thereof. The medium is changed during the incubation period, with fresh medium and fresh test compound added every 2 days. After incubation for indicated time period at 37° C., the cells were lysed in 0.1% SDS and DNA content was measured by means of Hoechst-33258 dye and a fluorometer (model TKO-100, Hoefer Scientific Instruments, San Francisco, Calif.). It has been shown that total cellular DNA content measured in this manner correlates closely with actual cell number as determined by hemocytometer counting of trypsinized cells.
(§2) Determinations were performed in triplicate and all experiments were repeated at least three times. Results are expressed as the mean ±standard deviation, unless otherwise indicated. Statistical analysis employed Student's t-test or analysis of variance to compare quantitative data populations with normal distributions and equal variance. Data were analyzed using the Mann-Whitney rank sum test or the Kruskal-Wallis test for populations with non-normal distributions or unequal variance. A P-value of <0.05 was considered statistically significant.
Primary cultures of bovine retinal pericytes (BRPC) were isolated by homogenization and a series of filtration steps as described in King et al., J. Clin. Invest., 1985, 75:1028-36. BRPC were cultured in Dulbecco's modified Eagle's medium (DMEM, Gibco BRL, Grand Island, N.Y.) with 5.5 mM glucose and 20% fetal bovine serum (FBS, Gibco BRL, Grand Island, N.Y.). Cells were characterized for homogeneity by their immunoreactivity with monoclonal antibody 3G5 [Nayak et al., J. Exp. Med. 1988, 167:1003-15]. Cells remained morphologically unchanged under these conditions, as confirmed by light microscopy. Only cells from passages 2 through 7 were used for the experiments.
A cell growth assay was performed as described above in Example 1 and the medium was changed, with fresh medium and fresh test compound added every 2 or 3 days, preferably every 2 days. […] At 20% FBS a six to seven fold increase of total DNA was detected.

[2] = tested on: bovine retinal endothelial cells (BREC); test: Cell growth assay (DNA content) in bovine retinal endothelial cells
Experimental: Primary cultures of bovine retinal endothelial cells (BREC) were isolated by homogenization and a series of filtration steps as described in King et al., J. Clin. Invest., 1985, 75:1028-36. BREC were subsequently cultured with endothelial cell basal medium (EBM; Clonetics, San Diego, Calif.). supplemented with 10% plasma-derived horse serum (PDHS), 50 mg/l heparin, and 50 μg/ml endothelial cell growth factor (ECGF, Roche, Indianapolis, Ind.). Cells were characterized for homogeneity by their immunoreactivity with anti-factor VIII antibody. Cells remained morphologically unchanged under these conditions, as confirmed by light microscopy. Only cells from passages 2 through 7 were used for the experiments.
as §1, §2

[3] = tested on: Bovine retinal pigment epithelial cells (RPEC); test: Cell growth assay in bovine retinal pigment epithelial cells; conditions: 15 μg/ml
Experimental: as §1
Bovine retinal pigment epithelial cells (RPEC) were isolated by gentle scraping after removal of the neural retina and incubation with 0.2% collagenase as described in King et al., Diabetes, 1987, 36:1460-7. RPEC were cultured in DMEM with 5.5 mM glucose and 10% calf serum (CS, Gibco BRL, Grand Island, N.Y.). Cells were cultured in 5% CO2 at 37° C., and media were changed every other days. Cells were characterized for their homogeneity by immunoreactivity with anti-cytokeratin antibody for RPEC. […]

For “XMP.679: BPI-derived peptide derived from BPI domain II, SEQ ID NO: 3 (KLFKAQAKAKG; XMP.679; listed as Homo sapiens)”, the stimulation of proliferation ([1]; 5 μg/mL) was ~2 fold, the “growth increase as potency of 20% FBS” value ([1]; 5 μg/ml, 5% FBS) was 30 to 40% and the “growth compared with 20% FBS” value ([1]; 5 μg/ml, 10% FBS) was “equaled the effect of 20% FBS”. The retinal pericyte proliferation ([1]; 5 μg/ml, 10% FBS) was “greatest increase”, the “growth compared with 15 or 20% FBS (trend)” value ([1]; 5 μg/ml, 15% FBS) was “may have more growth effect than either 15 or 20% FBS” and the stimulation of proliferation ([1]; 15 μg/mL) was “no enhancement”. For the same substance, the effect on growth ([1]; 15 μg/ml (higher concentration), 5% FBS, 3 or 6 days) was “did not increase growth; also recorded: did not show-a growth stimulating effect”, the effect on growth ([1]; 15 μg/ml, 10% FBS) was “did not have much growth effect” and the retinal pericyte proliferation ([1]; 20 μg/ml, 10% FBS) was “did not”. For the same substance, the “pericyte DNA content” value ([1]; 1, 5, 10, and 15 μg/ml, 10% FBS) was “Statistically significant increases”, the effect on growth ([1]; 1 or 5 μg/ml, 5% FBS, 6 days) was “increased growth” and the effect on growth ([1]; 15% FBS, concentration not given) was “did not increase the growth of pericyte in 15% FBS to any significant amount”. For the same substance, the “effect on DNA content” value ([2]; 1 μg/ml compound, with and without VEGF) was “did not have a significant effect”, the “effect on VEGF-dependent growth” value ([2]; VEGF 25 ng/ml plus 1 μg/ml compound) was “had no effect” and the “effect on VEGF-dependent growth” value ([2]; VEGF 25 ng/ml plus 5 and 15 μg/ml compound) was “totally prevented VEGF-dependent growth”. The effect on growth ([2]; compound alone, 15 μg/ml, not statistically significant) was “slight growth inhibitory effect” and the growth promoting effect [3] was 20 to 30%.
